{
  "source": "BindingDB's records for doi:10.1124/mol.64.4.865",
  "about": "(The Danish University of Pharmaceutical Sciences, 2003)",
  "key": {"[1]": {"molecular_target": "Neuronal acetylcholine receptor subunit alpha-3 (Rattus norvegicus, UniProt P04757)", "sequence (P04757 whole entry)": "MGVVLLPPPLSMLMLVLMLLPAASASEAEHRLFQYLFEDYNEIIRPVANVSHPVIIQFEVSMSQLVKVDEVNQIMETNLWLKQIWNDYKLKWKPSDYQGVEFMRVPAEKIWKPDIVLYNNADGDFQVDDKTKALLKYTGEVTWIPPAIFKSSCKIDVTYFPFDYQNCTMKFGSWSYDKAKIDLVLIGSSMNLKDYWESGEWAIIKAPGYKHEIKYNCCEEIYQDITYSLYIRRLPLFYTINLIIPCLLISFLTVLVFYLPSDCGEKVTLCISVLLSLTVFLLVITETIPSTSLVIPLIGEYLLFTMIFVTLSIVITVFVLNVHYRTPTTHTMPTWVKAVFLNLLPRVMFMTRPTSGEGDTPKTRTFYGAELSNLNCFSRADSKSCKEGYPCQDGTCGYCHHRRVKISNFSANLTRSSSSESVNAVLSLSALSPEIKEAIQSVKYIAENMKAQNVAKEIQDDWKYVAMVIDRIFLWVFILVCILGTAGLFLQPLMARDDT"}, "[2]": {"molecular_target": "Neuronal acetylcholine receptor subunit alpha-7 (Rattus norvegicus, UniProt Q05941)", "sequence (Q05941 whole entry)": "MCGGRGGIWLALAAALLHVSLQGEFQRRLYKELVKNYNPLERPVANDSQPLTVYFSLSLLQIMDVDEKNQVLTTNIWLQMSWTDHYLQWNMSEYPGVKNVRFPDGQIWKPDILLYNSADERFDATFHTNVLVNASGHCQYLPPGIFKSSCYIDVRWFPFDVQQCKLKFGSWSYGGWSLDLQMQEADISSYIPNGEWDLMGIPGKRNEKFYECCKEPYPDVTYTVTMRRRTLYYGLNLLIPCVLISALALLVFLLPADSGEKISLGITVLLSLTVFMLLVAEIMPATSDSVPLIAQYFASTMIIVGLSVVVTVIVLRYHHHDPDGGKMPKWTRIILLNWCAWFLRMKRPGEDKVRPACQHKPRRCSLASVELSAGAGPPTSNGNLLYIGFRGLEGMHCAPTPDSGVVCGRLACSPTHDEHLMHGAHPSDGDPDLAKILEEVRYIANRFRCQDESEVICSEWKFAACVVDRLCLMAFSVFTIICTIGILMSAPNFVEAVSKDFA"}, "[3]": {"molecular_target": "Neuronal acetylcholine receptor subunit alpha-4 (Rattus norvegicus, UniProt P09483)", "sequence (P09483 whole entry)": "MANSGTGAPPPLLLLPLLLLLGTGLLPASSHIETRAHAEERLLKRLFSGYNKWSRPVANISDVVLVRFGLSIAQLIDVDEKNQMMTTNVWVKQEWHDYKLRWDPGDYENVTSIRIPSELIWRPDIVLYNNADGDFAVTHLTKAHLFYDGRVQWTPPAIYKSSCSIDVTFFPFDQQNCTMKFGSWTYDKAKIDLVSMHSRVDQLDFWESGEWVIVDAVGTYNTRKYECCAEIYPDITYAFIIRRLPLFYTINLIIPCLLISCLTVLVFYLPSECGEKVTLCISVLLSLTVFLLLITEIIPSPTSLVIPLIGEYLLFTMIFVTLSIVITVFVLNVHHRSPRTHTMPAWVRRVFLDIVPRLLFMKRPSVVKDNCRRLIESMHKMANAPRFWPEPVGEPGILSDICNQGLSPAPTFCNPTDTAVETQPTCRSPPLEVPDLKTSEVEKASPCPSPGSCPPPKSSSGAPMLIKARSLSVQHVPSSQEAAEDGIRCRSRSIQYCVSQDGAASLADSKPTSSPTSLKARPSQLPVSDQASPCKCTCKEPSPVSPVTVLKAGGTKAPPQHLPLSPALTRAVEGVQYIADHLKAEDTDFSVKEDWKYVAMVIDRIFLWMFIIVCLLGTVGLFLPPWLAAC"}, "[4]": {"molecular_target": "Nicotinic acetylcholine receptor (Rattus leucopus, UniProt Q62594)", "sequence (Q62594 whole entry)": "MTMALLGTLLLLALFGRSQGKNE"}, "[5]": {"molecular_target": "T1, Muscarinic acetylcholine receptor M2 (Rattus norvegicus, UniProt P10980)", "T1 sequence (P10980 whole entry)": "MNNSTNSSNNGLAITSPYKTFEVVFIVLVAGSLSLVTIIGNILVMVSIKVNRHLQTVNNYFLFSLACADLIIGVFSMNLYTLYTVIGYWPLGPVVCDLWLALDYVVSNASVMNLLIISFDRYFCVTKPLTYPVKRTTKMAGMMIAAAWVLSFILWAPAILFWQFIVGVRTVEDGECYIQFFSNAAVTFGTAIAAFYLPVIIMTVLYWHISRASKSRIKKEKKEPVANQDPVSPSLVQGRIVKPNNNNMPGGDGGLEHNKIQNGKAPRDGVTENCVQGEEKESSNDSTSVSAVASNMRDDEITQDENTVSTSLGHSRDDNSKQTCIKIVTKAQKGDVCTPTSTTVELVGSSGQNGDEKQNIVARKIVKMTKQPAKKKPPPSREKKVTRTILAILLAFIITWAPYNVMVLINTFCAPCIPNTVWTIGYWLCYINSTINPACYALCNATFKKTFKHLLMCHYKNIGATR"}},
  "note": "“And” between values parts separate entries of the source, which are not always exact repeats. Equal entries are not always repeated.",
  "data": [
    {"smiles": "O=c1cccc2n1CC1CNCC2C1", "note": "(stereo unspecified) [CAS_485-35-8]", "values": [
      {"measurement": "Ki", "setting": "[1]", "value": 130, "unit": "nM"},
      {"measurement": "Ki", "setting": "[2]", "value": "> 10000", "unit": "nM"},
      {"measurement": "Ki", "setting": "[3]", "value": "1.3 nM and 6.8 nM"}
    ]},
    {"smiles": "C[C@H](CCOC(=O)N(C)C)N(C)C", "note": "[3-N,N-dimethylaminobutyl-N,N-dimethylcarbamate]", "values": [
      {"measurement": "Ki", "setting": "[1]", "value": 370, "unit": "nM"},
      {"measurement": "Ki", "setting": "[2]", "value": "> 10000", "unit": "nM"},
      {"measurement": "Ki", "setting": "[3]", "value": "17 nM and 66 nM"},
      {"measurement": "Ki", "setting": "[4]", "value": 9, "unit": "nM"},
      {"measurement": "Ki", "setting": "[5]", "value": 3600, "unit": "nM"}
    ]},
    {"smiles": "COC(=O)Nc1ccc(Cl)c(Cl)c1", "note": "[SWEP]", "values": [
      {"measurement": "Ki", "setting": "[1]", "value": 2700, "unit": "nM"},
      {"measurement": "Ki", "setting": "[2]", "value": "> 10000", "unit": "nM"},
      {"measurement": "Ki", "setting": "[4]", "value": 23, "unit": "nM"},
      {"measurement": "Ki", "setting": "[5]", "value": 150, "unit": "nM"}
    ]},
    {"smiles": "CN(C)C(=O)OCC[N+](C)(C)C", "note": "[CAS_84607]", "values": [
      {"measurement": "Ki", "setting": "[4]", "value": 20, "unit": "nM"},
      {"measurement": "Ki", "setting": "[5]", "value": 1200, "unit": "nM"}
    ]},
    {"smiles": "CN(C)CCOC(=O)N(C)C", "note": "[DMCAE]", "values": [
      {"measurement": "Ki", "setting": "[4]", "value": 5700, "unit": "nM"},
      {"measurement": "Ki", "setting": "[5]", "value": "> 10000", "unit": "nM"}
    ]}
  ]
}
